Measured values published in US20240262826A1, “WILD TYPE KIT INHIBITORS” (Blueprint Medicines Corporation, priority 2022, published 2024).

Molecular target: wild type c-kit (Homo sapiens (Human), UniProt P10721)
Assay: PathScan phospho c-kit (Tyr719) sandwich ELISA in SCF-stimulated M-07e cells (pKIT assay)
Type: cell-based
Conditions: ELISA assay (values not marked *)
In short: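 Serum- and GM-CSF-starved M-07e cells (4 h) pretreated 60 min at 37 °C with an 8-point compound series in duplicate (0.25% DMSO), then stimulated with human SCF (500 ng/mL stock) 10 min at room temperature. Lysate c-kit Tyr719 phosphorylation quantified by sandwich ELISA with TMB read-out; IC50 from 4-parameter logistic fit.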

Chain of wild type c-kit (P10721 26-976): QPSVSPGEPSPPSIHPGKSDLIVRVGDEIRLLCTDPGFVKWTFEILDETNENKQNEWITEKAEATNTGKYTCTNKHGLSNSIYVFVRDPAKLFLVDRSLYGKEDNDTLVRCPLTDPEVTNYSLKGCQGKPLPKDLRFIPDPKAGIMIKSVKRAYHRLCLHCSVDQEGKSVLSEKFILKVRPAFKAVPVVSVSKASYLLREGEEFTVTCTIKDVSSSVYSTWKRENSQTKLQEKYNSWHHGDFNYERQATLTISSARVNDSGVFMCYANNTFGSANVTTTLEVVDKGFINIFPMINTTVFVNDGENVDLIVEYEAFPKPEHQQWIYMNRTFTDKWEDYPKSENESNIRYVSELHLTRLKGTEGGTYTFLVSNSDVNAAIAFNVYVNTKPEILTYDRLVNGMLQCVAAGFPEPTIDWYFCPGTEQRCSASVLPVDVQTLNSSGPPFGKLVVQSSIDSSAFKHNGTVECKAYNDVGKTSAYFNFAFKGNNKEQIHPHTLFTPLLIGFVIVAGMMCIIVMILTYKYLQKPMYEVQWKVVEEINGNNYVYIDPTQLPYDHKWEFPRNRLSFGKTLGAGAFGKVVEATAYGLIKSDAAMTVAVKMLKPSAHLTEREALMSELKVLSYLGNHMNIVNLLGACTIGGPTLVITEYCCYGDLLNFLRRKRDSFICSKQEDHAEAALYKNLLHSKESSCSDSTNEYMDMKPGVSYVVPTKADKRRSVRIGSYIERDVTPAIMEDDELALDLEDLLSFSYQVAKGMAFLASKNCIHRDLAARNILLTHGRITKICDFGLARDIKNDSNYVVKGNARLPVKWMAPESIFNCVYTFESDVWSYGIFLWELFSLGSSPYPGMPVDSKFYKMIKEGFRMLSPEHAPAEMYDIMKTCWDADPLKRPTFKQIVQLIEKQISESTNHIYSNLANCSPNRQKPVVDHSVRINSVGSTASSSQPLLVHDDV

Compound | IC50
Cc1ccc(-c2nnn(C3CN(CC(F)(F)F)C3)n2)cc1NC(=O)c1cnn2ccccc12 [Example 196, N-(2-methyl-5-(2-(1-(2,2,2-trifluoroethyl)azetidin-3-yl)-2H-tetrazol-5-yl)phenyl)pyrazolo[1,5-a]pyridine-3-carboxamide] | 9.1 nM
COC(=O)N1CC(n2nnc(-c3ccc(C)c(NC(=O)c4cnn5ccc(N6CCC(F)(F)C6)cc45)c3)n2)C1 [Example 67, methyl 3-(5-(3-(5-(3,3-difluoropyrrolidin-1-yl)pyrazolo[1,5-a]pyridine-3-carboxamido)-4-methylphenyl)-2H-tetrazol-2-yl)azetidine-1-carboxylate] | 22.7 nM
Cc1cc(Cl)c(NC(=O)c2cnn3ccc(N4CCOCC4)cc23)cc1-c1nnn(C2CC(F)(F)C2)n1 [Example 170, N-(2-chloro-5-(2-(3,3-difluorocyclobutyl)-2H-tetrazol-5-yl)-4-methylphenyl)-5-morpholinopyrazolo[1,5-a]pyridine-3-carboxamide] | 6.3 nM
COCCNc1ccn2ncc(C(=O)Nc3cc(-c4nnn(C5CN(C(=O)OC)C5)n4)ccc3F)c2c1 [Example 115, methyl 3-(5-(4-fluoro-3-(5-((2-methoxyethyl)amino)pyrazolo[1,5-a]pyridine-3-carboxamido)phenyl)-2H-tetrazol-2-yl)azetidine-1-carboxylate] | 12.4 nM
COC(=O)N1CC(n2nnc(-c3ccc(C)c(NC(=O)c4cnn5ccc(N[C@H]6CCOC6)cc45)c3)n2)C1 [Example 136, methyl (S)-3-(5-(4-methyl-3-(5-((tetrahydrofuran-3-yl)amino)pyrazolo[1,5-a]pyridine-3-carboxamido)phenyl)-2H-tetrazol-2-yl)azetidine-1-carboxylate] | 76.2 nM
Cc1nn([C@H](C)[C@H](C)O)cc1-c1ccn2ncc(C(=O)Nc3cc(-c4nnn(C5CC5)n4)c(F)cc3Cl)c2c1 (single isomer, unassigned) [Example 289, N-(2-chloro-5-(2-cyclopropyl-2H-tetrazol-5-yl)-4-fluorophenyl)-5-(1-((2R,3S)-3-hydroxybutan-2-yl)-3-methyl-1H-pyrazol-4-yl)pyrazolo[1,5-a]pyridine-3-carboxamide or N-(2-chloro-5-(2-cyclopropyl-2H-tetrazol-5-yl)-4-fluorophenyl)-5-(1-((2S,3R)-3-hydroxybutan-2-yl)-3-methyl-1H-pyrazol-4-yl)pyrazolo[1,5-a]pyridine-3-carboxamide] | 0.6 nM
Cc1cc(F)c(-c2nnn(C3CC3)n2)cc1NC(=O)c1cnn2ccc(-c3cn(C[C@H](C)O)nc3C)cc12 [Example 256, (S)-N-(5-(2-cyclopropyl-2H-tetrazol-5-yl)-4-fluoro-2-methylphenyl)-5-(1-(2-hydroxypropyl)-3-methyl-1H-pyrazol-4-yl)pyrazolo[1,5-a]pyridine-3-carboxamide] | 0.5 nM
